Results published in US9883691B2, “Food and beverage products containing 1,3-propanediol and methods of modifying flavor release using 1,3-propanediol” (Kraft Foods Group Brands LLC, priority 2012, dated 2018).

Columns and labels:
[1] = PTR-MS headspace release with various non-aqueous liquids (diols) at 0.05:100 (Example 3); type: physicochemical; settings: ratio 0.05:100; for PTR-MS headspace release in 1,3-butanediol: non-aqueous liquid 1,3-butanediol; for PTR-MS headspace release in 1,3-butanediol / PTR-MS headspace release in 1,3-propanediol / PTR-MS headspace release in 1,4-butanediol / PTR-MS headspace release in 1,7-heptanediol / PTR-MS headspace release in Propylene glycol: diluted in water; for PTR-MS headspace release in 1,3-propanediol: non-aqueous liquid 1,3-propanediol; for PTR-MS headspace release in 1,4-butanediol: non-aqueous liquid 1,4-butanediol; for PTR-MS headspace release in 1,7-heptanediol: non-aqueous liquid 1,7-heptanediol; for PTR-MS headspace release in Propylene glycol: non-aqueous liquid propylene glycol
Experimental: […]. The flavoring was then diluted in water for analysis. The final concentration of each compound was held constant at 8 ppm except furfuryl mercaptan was included at 1.6 ppm to maintain a constant flavor level in the resulting beverage while the non-aqueous liquid varied but the ratio of each compound to non-aqueous liquid was held constant at 0.05:100. A variety of non-aqueous liquids were evaluated, including 1,4-butandiol; 1,7-heptandiol; 1,3-butandiol, propylene glycol, and 1,3-propanediol.
Samples were analyzed by PTR-MS as described in Example 1.
Percent suppression was calculated by the following formula: (I1-3-diol−Ialternate diol)/Ialternate diol×100.

[2] = not marked (est); cited from earlier work
[3] = PTR-MS real-time headspace release, watermelon flavor model in water (Example 1); type: physicochemical; set-up: Sample A (PG) Mean / Sample B (1,3-propanediol) Mean: unit not given here; settings: for Sample B (1,3-propanediol) Mean / Sample A (PG) Mean: PTR-MS headspace, diluted in water, 90 minutes equilibration, mean of three; for Sample B (1,3-propanediol) Mean: watermelon flavor concentrate in 1,3-propanediol; for Sample A (PG) Mean: watermelon flavor concentrate in propylene glycol; for Percent Release Difference: Sample B (1,3-propanediol) relative to Sample A (PG)
Experimental: The impact of 1,3-propanediol on the release of flavor compounds can be analyzed by Proton Transfer Reaction Mass Spectrometry (PTR-MS; model TOF-8000 from Ionicon Analytik Inc.), where real-time headspace release of volatiles is measured. A sampling apparatus is needed in conjunction with the PTR-MS inlet to prevent variations caused by headspace kinetics. By one exemplary approach, the sampling apparatus includes a 4 ounce sample vessel equipped with a 2-hole lid which may be sealed by an adhesive film to allow equilibration. […]. The holes are equal sized (˜2 mm diameter) and match the outer diameter of the PTR-MS inlet line. The flow of the dilution gas into the vessel is regulated by the vacuum and proportional valve of the PTR-MS inlet system. The sample vessel has a base diameter of 47 mm and is 45 mm high, of which 8 mm of height is occupied by the sample in the vessel in these experiments. The 2 holes in the lid are equidistant from the edge of the vessel (˜20 mm) and about 30 mm from each other. The PTR-MS inlet is braced by clamps in a fixed position vertically above the laboratory bench (˜55 mm) and a silicone rubber depth gauge is affixed to the PTR-MS inlet tubing and set at 18 mm. The PTR-MS inlet is thus consistently oriented in a vertical position 18 mm below the inside lid of the vessel and 19 mm above the sample in the vessel. The sample vessel is then held in place during sampling according to the depth gauge on the inlet line and the vessel is subsequently supported on the bench by a 10 mm plastic spacer.
15 grams of the sample to be tested (e.g., food or beverage product containing 1,3-propanediol) are added to the vessel. The vessel is sealed and allowed to equilibrate at room temperature (˜22° C.) for 90 minutes. At the time of sampling, the seal is removed from both the sampling hole and the dilution gas hole in the lid and the vessel is immediately affixed to the PTR-MS inlet via the sampling hole. The real-time released flavor is measured from the headspace of the sample vessel for two minutes (according to the conditions listed in Table 1 below). A comparative sample is prepared that is otherwise identical to the test sample but contains propylene glycol or water instead of 1,3-propanediol. The comparative sample is then analyzed in triplicate by PTR-MS using the above-described procedure. The data can be analyzed using PTR-MS Viewer, Version 3.0.0.101 (Ionicon Analytik G.m.b.H). The point of maximum intensity for each compound of interest can be determined and recorded according to the PTR-MS Viewer software. The maximum intensity in counts over the timescale for each compound of interest can be used for data analysis as it reflects the static equilibrium headspace concentration in the system at the moment of seal removal. Due to the necessity of a dilution gas, the volatile concentration decreases over time as the compounds of interest re-equilibrate to a state of dynamic equilibrium in the headspace.
[…]. Sample A was prepared with 20 grams watermelon flavor concentrate and 80 grams propylene glycol. Sample B was prepared with 20 grams watermelon flavor concentrate and 80 grams 1,3-propanediol. Each of the samples was further diluted by adding 0.08 grams of each diluted concentrate to 99.92 grams water to provide a flavor water solution.
The diluted samples were analyzed by Proton Transfer Reaction Mass Spectrometry (PTR-MS; model TOF-8000 from Ionicon Analytik Inc.) for real-time headspace release volatiles measurement. Samples were analyzed in triplicate. […]. […].

Row | SMILES | PTR-MS headspace release in 1,3-butanediol [1] | PTR-MS headspace release in 1,3-propanediol [1] | PTR-MS headspace release in 1,4-butanediol [1] | PTR-MS headspace release in 1,7-heptanediol [1] | PTR-MS headspace release in Propylene glycol [1] | Percent suppression by 1,3-butanediol relative to 1,4-butanediol [1] | logP (o/w) [2] | Sample B (1,3-propanediol) Mean [3] | Sample A (PG) Mean [3] | Percent Release Difference [3]
1 | CC=O [Acetaldehyde] | 157.0 | 104.00 | 196.5 | 206.5 | 165.85 | −25.2% | −0.16 | 877 | 803.33 | 9.1%
2 | O=Cc1ccccc1 [Benzaldehyde] | 250.0 | 13.20 | 354.0 | 357.5 | 136.25 | −41.6% |  | 32.00 | 39.67 | −19.3%
3 | CCCC(=O)OCC [Ethyl butyrate] | 141.5 | 46.20 | 239.3 | 223.5 | 40.20 | −69.10% |  | 5827 | 10983 | −46.9%
